Reference: patent publication US10344025B2, “GLS1 inhibitors for treating disease” (Board of Regents, The University of Texas System, priority 2014, dated 2019)

Key:
[1] = biological target: purified recombinant human GAC (GLS1) (Homo sapiens (Human), UniProt O94925); assay: GLS1 Enzymatic Activity Assay (dual-coupled enzymatic assay, resorufin/Amplex UltraRed readout); format: biochemical;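 further: glutamate from GAC coupled via glutamate oxidase and peroxidase to resorufin, read as fluorescence (ex 530, em 590 nm) kinetically or at 20 min, four-parameter logistic IC50 fit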
purified recombinant human GAC (GLS1), sequence (O94925 other isoform, or with tags, fused parts or gaps): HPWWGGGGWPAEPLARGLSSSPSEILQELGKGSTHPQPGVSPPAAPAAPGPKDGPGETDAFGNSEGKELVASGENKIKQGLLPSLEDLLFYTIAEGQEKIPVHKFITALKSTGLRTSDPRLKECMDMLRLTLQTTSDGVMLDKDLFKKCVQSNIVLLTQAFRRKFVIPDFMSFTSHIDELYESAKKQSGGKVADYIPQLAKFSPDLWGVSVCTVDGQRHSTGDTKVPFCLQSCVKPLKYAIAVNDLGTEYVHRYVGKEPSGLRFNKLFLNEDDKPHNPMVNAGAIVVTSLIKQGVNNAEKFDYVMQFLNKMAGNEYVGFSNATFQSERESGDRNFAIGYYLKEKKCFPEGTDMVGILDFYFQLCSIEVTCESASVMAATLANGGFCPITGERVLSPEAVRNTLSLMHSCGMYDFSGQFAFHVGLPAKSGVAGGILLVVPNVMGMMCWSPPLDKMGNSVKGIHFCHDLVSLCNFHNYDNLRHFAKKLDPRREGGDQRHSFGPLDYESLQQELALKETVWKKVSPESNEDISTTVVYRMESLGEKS

A549 cells = assay: Proliferation Assay (A549 viability, Cell Titer Fluor, 72 hours); format: cell-based; settings: Homo sapiens, A549, 72 h
In short: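 Cell Titer Fluor fluorescence after 72 h compound treatment (0.5% DMSO, 37 °C, 5% CO2) of A549 cells plated 24 h earlier at 1000/well. Four-parameter logistic fitting gave IC50.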

| SMILES | IC50 [1] [nM] | EC50 (A549 cells) [nM] |
| --- | --- | --- |
| O=C(NCc1cccc(C2CC2)c1)c1cn(CCCCn2cc(C(=O)NCc3cncc(C(F)(F)F)c3)nn2)nn1 [Example 133, 1-[4-(4-{[(3-cyclopropylphenyl)methyl]carbamoyl}-1H-1,2,3-triazol-1-yl)butyl]-N-{[5-(trifluoromethyl)pyridin-3-yl]methyl}-1H-1,2,3-triazole-4-carboxamide] | < 100 | < 100 |
| O=C(NCc1cncc(C(F)(F)F)c1)c1cn(CCCCn2cc(C(=O)NCc3cc(C4CC4)ccn3)nn2)nn1 [Example 135, 1-[4-(4-{[(4-cyclopropylpyridin-2-yl)methyl]carbamoyl}-1H-1,2,3-triazol-1-yl)butyl]-N-{[5-(trifluoromethyl)pyridin-3-yl]methyl}-1H-1,2,3-triazole-4-carboxamide] | < 100 | < 100 |
| CC1(C)Oc2ccc(CNC(=O)c3cn(CCCCn4cc(C(=O)NCc5cncc(C(F)(F)F)c5)nn4)nn3)cc2O1 [Example 136, 1-[4-(4-{[(2,2-dimethyl-2H-1,3-benzodioxol-5-yl)methyl]carbamoyl}-1H-1,2,3-triazol-1-yl)butyl]-N-{[5-(trifluoromethyl)pyridin-3-yl]methyl}-1H-1,2,3-triazole-4-carboxamide] | < 100 | < 100 |
| CC1(C)Oc2ccc(CNC(=O)c3cn(CCCCn4cc(C(=O)NCc5cc(C(F)(F)F)ccn5)nn4)nn3)cc2O1 [Example 137, 1-[4-(4-{[(2,2-dimethyl-2H-1,3-benzodioxol-5-yl)methyl]carbamoyl}-1H-1,2,3-triazol-1-yl)butyl]-N-{[4-(trifluoromethyl)pyridin-2-yl]methyl}-1H-1,2,3-triazole-4-carboxamide] | < 100 | < 100 |
| O=C(NCc1cccc(OC(F)(F)F)c1)c1cn(CCCCn2cc(C(=O)NC[C@@H](O)c3ccccc3)nn2)nn1 [Example 138, N-[(2S)-2-hydroxy-2-phenylethyl]-1-{4-[4-({[3-(trifluoromethoxy)phenyl]methyl}carbamoyl)-1H-1,2,3-triazol-1-yl]butyl}-1H-1,2,3-triazole-4-carboxamide] | 100 to 500 | 100 to 500 |
| O=C(NCc1cncc(C(F)(F)F)c1)c1cn(CCCCn2cc(C(=O)NCc3cncc(C(F)(F)F)c3)nn2)nn1 [Example 140, N-{[5-(trifluoromethyl)pyridin-3-yl]methyl}-1-{4-[4-({[5-(trifluoromethyl)pyridin-3-yl]methyl}carbamoyl)-1H-1,2,3-triazol-1-yl]butyl}-1H-1,2,3-triazole-4-carboxamide] | < 100 | < 100 |
| O=C(NCc1cncc(C(F)(F)F)c1)c1cn(CCCCn2cc(C(=O)NCc3cc(C(F)(F)F)ccn3)nn2)nn1 [Example 141, 1-{4-[4-({[4-(trifluoromethyl)pyridin-2-yl]methyl}carbamoyl)-1H-1,2,3-triazol-1-yl]butyl}-N-{[5-(trifluoromethyl)pyridin-3-yl]methyl}-1H-1,2,3-triazole-4-carboxamide] | < 100 | < 100 |
| O=C(NCc1cncc(C(F)(F)F)c1)c1cn(CCCCn2cc(C(=O)NCc3ccc(C(F)(F)F)cn3)nn2)nn1 [Example 142, 1-{4-[4-({[5-(trifluoromethyl)pyridin-2-yl]methyl}carbamoyl)-1H-1,2,3-triazol-1-yl]butyl}-N-{[5-(trifluoromethyl)pyridin-3-yl]methyl}-1H-1,2,3-triazole-4-\ carboxamide] | < 100 | < 100 |
| O=C(NCc1ccc(C(F)(F)F)nc1)c1cn(CCCCn2cc(C(=O)NCc3cncc(C(F)(F)F)c3)nn2)nn1 [Example 143, N-{[5-(trifluoromethyl)pyridin-3-yl]methyl}-1-{4-[4-({[6-(trifluoromethyl)pyridin-3-yl]methyl}carbamoyl)-1H-1,2,3-triazol-1-yl]butyl}-1H-1,2,3-triazole-4-carboxamide] | < 100 | < 100 |
| O=C(NCc1cncc(C(F)(F)F)c1)c1cn(CCCCn2cc(C(=O)NCc3cccc(C(F)(F)F)n3)nn2)nn1 [Example 144, 1-{4-[4-({[6-(trifluoromethyl)pyridin-2-yl]methyl}carbamoyl)-1H-1,2,3-triazol-1-yl]butyl}-N-{[5-(trifluoromethyl)pyridin-3-yl]methyl}-1H-1,2,3-triazole-4-carboxamide] | < 100 | < 100 |
| O=C(NCc1cccc(OC(F)(F)F)c1)c1cn(CCCCn2cc(C(=O)NCc3cncc(N4CC(F)(F)C4)c3)nn2)nn1 [Example 146, N-{[5-(3,3-difluoroazetidin-1-yl)pyridin-3-yl]methyl}-1-{4-[4-({[3-(trifluoromethoxy)phenyl]methyl}carbamoyl)-1H-1,2,3-triazol-1-yl]butyl}-1H-1,2,3-triazole-4-carboxamide] | < 100 | < 100 |

Second part, the molecule after the results:

| IC50 [1] [nM] | EC50 (A549 cells) [nM] | SMILES |
| --- | --- | --- |
| 100 to 500 | 100 to 500 | O=C(NCc1cccc(OC(F)(F)F)c1)c1cn(CCCCn2cc(C(=O)NC[C@H](O)c3ccccc3)nn2)nn1 [Example 139, N-[(2R)-2-hydroxy-2-phenylethyl]-1-{4-[4-({[3-(trifluoromethoxy)phenyl]methyl}carbamoyl)-1H-1,2,3-triazol-1-yl]butyl}-1H-1,2,3-triazole-4-carboxamide] |
| < 100 | < 100 | O=C(NCc1cc(C(F)(F)F)ccn1)c1cn(CCC(F)Cn2cc(C(=O)NCc3cncc(C(F)(F)F)c3)nn2)nn1 (stereo not drawn) [Example 145, 1-{3-fluoro-4-[4-({[5-(trifluoromethyl)pyridin-3-yl]methyl}carbamoyl)-1H-1,2,3-triazol-1-yl]butyl}-N-1{[4-(trifluoromethyl)pyridin-2-yl]methyl}-1H-1,2,3-triazole-4-carboxamide] |
| < 100 | < 100 | O=C(NCc1cccc(OC(F)(F)F)c1)c1cn(CCC(F)Cn2cc(C(=O)NCc3cc(C4CC4)ccn3)nn2)nn1 (stereo not drawn) [Example 147] |
| < 100 | < 100 | O=C(NCc1cc(C2CC2)ccn1)c1cn(CCC(F)Cn2cc(C(=O)NCc3cccc(OC(F)(F)F)c3)nn2)nn1 (stereo not drawn) [Example 148, 1-[4-(4-({[4-cyclopropylpyridin-2-yl)methyl]carbamoyl}-1H-1,2,3-triazol-1-yl)-2-fluorobutyl]-N-{[3-(trifluoromethoxy)phenyl]methyl}-1H-1,2,3-triazole-4-carboxamide] |
| 100 to 500 | 500 to 5000 | CNC(=O)c1cn(CC(F)CCn2cc(C(=O)NCc3cc(C(F)(F)F)ccn3)nn2)nn1 (stereo not drawn) [Example 149, 1-{2-fluoro-4-[4-({[4-yl]methyl}carbamoyl)-1H-1,2,3-triazol-1-yl]butyl}-N-methyl-1H-1,2,3-triazole-4-carboxamide] |
| 100 to 500 | 100 to 500 | CNC(=O)c1cn(CC(F)CCn2cc(C(=O)NCc3cc(OC(F)(F)F)ccc3F)nn2)nn1 (stereo not drawn) [Example 150, 1-{2-fluoro-4-[4-({[2-fluoro-5-(trifluoromethoxy)phenyl]methyl}carbamoyl)-1H-1,2,3-triazol-1-yl]butyl}-N-methyl-1H-1,2,3-triazole-4-carboxamide] |
| 100 to 500 | 500 to 5000 | CNC(=O)c1cn(CCC(F)Cn2cc(C(=O)NCc3cncc(C(F)(F)F)c3)nn2)nn1 (stereo not drawn) [Example 151, 1-{3-fluoro-4-[4-({[5-(trifluoromethyl)pyridin-3-1-yl]methyl}carbamoyl)-1H-1,2,3-triazol-1-yl]butyl}-N-methyl-1H-1,2,3-triazole-4-carboxamide] |
